Values quoted from earlier work as cited in article PMC9683570.
Structures can show the parent of a compound that is named as a salt. Where two headings read alike, the source gives them in different places.

Assays:
[1] = system: hCaV1.2α, β2, α2δ1 subunits; parameters: method as in PMID 30151907; conditions: IonWorks Barracuda, ambient temperature, […] Ca2+, current at 0 mV step, 10 s interval, rundown adjusted; read-out: IC50 (Li et al. 2018)
[2] = system: L-type Ca2+ current; parameters: method as in PMID 19367686; conditions: 20–25 °C, 10 Ca2+
[3] = system: hCaV1.2, β2, α2δ; conditions: ambient, 1.8 Ca2+
[4] = system: CaVAb (voltage-dependent Ca2+-selective channel); conditions: 13 Ba2+
[5] = system: hCav1.2; parameters: method as in PMID 23651875; conditions: RT
[6] = parameters: method as in DrugBank; conditions: predicted, based on ChemAxon; ref DrugBank
[7] = system: CaV1.2, α2δ, β2a; conditions: 22–25 °C, 20 Ba2+
[8] = system: CaV1.2, α2δ, β2a; conditions: ~25 °C
[9] = system: CaV1.2, α2δ, β1b; conditions: read-out: IC50 (± SE); RT, 10 Ba2+
[10] = system: CaV1.2, α2δ, β2a along with Kir2.3; conditions: 30 Ba2+
[11] = system: L-type Ca2+ current; conditions: RT (22–25 °C), 2 Ca2+
[12] = system: NaV1.5 channels; conditions: similar concentrations as tested on CaV1.2
[13] = system: L-type Ca2+ channels; parameters: method as in PMID 17909749; conditions: from 22°C to 37°C
[14] = system: Ca2+ current (L-type); conditions: peak current inhibited less potently than late current at end of step depolarization

Question: Which IC50 [1] does the source give for `COc1ccc(CCN(C)CCCC(C#N)(c2ccc(OC)c(OC)c2)C(C)C)cc1OC` (racemic) [Verapamil, (±)-verapamil hydrochloride] here?
Answer: Its IC50 is […].

Question: What about the IC50 [2] of the same molecule?
Answer: The IC50 was 0.79 µM.

Question: And the “nH (± SE)” value [3]?
Answer: The value was 0.80 ± 0.11.

Question: What about the pIC50 [5] of the same molecule?
Answer: Its pIC50 is […].

Question: What does the source list for `CC(C)COCC(CN(Cc1ccccc1)c1ccccc1)N1CCCC1` (stereo not drawn) [Bepridil]?
Answer: IC50 [1]: 638 µM; Log P [6]: 5.49

Question: For `CN(C)CCCN1c2ccccc2Sc2ccc(Cl)cc21` [Chlorpromazine], which IC50 [1] is on record?
Answer: Its IC50 is 6.35 µM.

Question: And the “Log P” value [6]?
Answer: Its value is 4.54.

Question: For `COc1ccc([C@@H]2Sc3ccccc3N(CCN(C)C)C(=O)[C@@H]2OC(C)=O)cc1` [Diltiazem, diltiazem hydrochloride], which IC50 [1] is on record?
Answer: The IC50 was 31.6 µM.

Question: And the IC50 [7]?
Answer: The IC50 was 85 ± 9 µM.

Question: And the IC50 [2]?
Answer: The IC50 was 30 µM.

Question: And the IC50 [3]?
Answer: The IC50 was 0.76 ± 0.08 µM.

Question: And the “nH (± SE)” value [3]?
Answer: The value was 1.14 ± 0.15.

Question: What about the IC50 ([4]; 20 ms single pulse from -120 mV, read-out: IC50, resting state block) of the same molecule?
Answer: Its IC50 is 41 µM.

Question: And the IC50 ([4]; 20 pulses at 1 Hz from -120 mV, read-out: IC50, use-dependent block)?
Answer: The IC50 was 10.4 µM.

Question: And the IC50 ([8]; 5 mM Ba2+, read-out: IC50 (± SE) (Ba2+) (converted))?
Answer: The IC50 was 109 µM.

Question: And the IC50 ([8]; 1.8 Ca2+, read-out: IC50 (± SE) (Ca2+))?
Answer: Its IC50 is 250 ± 16 µM.

Question: And the IC50 [9]?
Answer: The IC50 was 65 ± 13 µM.

Question: And the IC50 ([10]; read-out: IC50 (automated), PatchXpress 7000A, 22–26 °C)?
Answer: The IC50 was 36 µM.

Question: What about the IC50 ([10]; read-out: IC50 (manual), manual, 20–25 °C) of the same molecule?
Answer: The IC50 was 44 µM.

Question: And the nH [11]?
Answer: The nH was 0.77.

Question: What about the IC50 ([11]; read-out: IC50 (± SE)) of the same molecule?
Answer: The IC50 was 0.63 ± 0.05 µM.

Question: Which “nH on the peak and the late current” value [12] does the source give for `C=CCN1CC[C@]23c4c5ccc(O)c4O[C@H]2C(=O)CC[C@@]3(O)[C@H]1C5` [Naloxone, Naloxone hydrochloride] here?
Answer: Its value is no less than 0.8.

Question: With `O=C1CC[C@@]2(O)[C@H]3Cc4ccc(O)c5c4[C@@]2(CCN3CC2CC2)[C@H]1O5` [Naltrexone, naltrexone hydrochloride] as the molecule, how does the “nH on the peak and the late current” value [12] read?
Answer: The value was no less than 0.8.

Question: With `Cc1nccn1CC1CCc2c(c3ccccc3n2C)C1=O` (stereo not drawn) [Ondansetron] as the molecule, how does the IC50 [1] read?
Answer: Its IC50 is 9310 µM.

Question: And the “Log P” value [6]?
Answer: The value was 2.35.

Question: Which IC50 [1] does the source give for `CC(C)(C)c1ccc(C(O)CCCN2CCC(C(O)(c3ccccc3)c3ccccc3)CC2)cc1` (stereo not drawn) [Terfenadine] here?
Answer: The IC50 was […].

Question: And the “Log P” value [6]?
Answer: The value was 6.48.

Question: With `Cc1c(-c2ccccc2)oc2c(C(=O)OCCN3CCCCC3)cccc2c1=O` [flavoxate] as the molecule, how does the “increase in block potency on raising the recording temperature” value [13] read?
Answer: Its value is 2.2 X.

Question: Which “increase in block potency on raising the recording temperature” value [13] does the source give for `COC(=O)C1=C(C)NC(C)=C(C(=O)OC)C1c1ccccc1[N+](=O)[O-]` [nifedipine] here?
Answer: Its value is 7 X.

Question: For `COCCOC(=O)C1=C(C)NC(C)=C(C(=O)OC(C)C)C1c1cccc([N+](=O)[O-])c1` (stereo not drawn) [nimodipine], which “difference in the IC50s, peak vs late Ca2+ current” value [14] is on record?
Answer: Its value is 13.1 X.
